{"source": "ChEMBL document CHEMBL1201862", "about": "“PubChem BioAssay data set” (2004)", "key": {"[1]": {"assay": "Luminescence Cell-Based Dose Confirmation HTS to Identify Inhibitors of Platelet Dense Granule Release. [Related pubchem assays: 1663 (Primary HTS), 1678 (Summary of Project)]", "format": "functional"}, "[2]": {"assay": "Luminescence-based counterscreen assay for KLF5 inhibitors: dose response cell-based high throughput screening assay to identify cytotoxic compounds using the IEC-6 intestinal epithelial cell line. [Related pubchem assays: 1700 (Primary screen.), 1834 (Confirmation screen.), 1858 (Summary AID.), 1905 (Counterscreen.)]", "format": "functional"}, "[3]": {"assay": "HEK-293T viability loss after treatment – luminescence, T-cell screen hits, cytotoxicity control for TCR NF-kB inhibitor project, dose response (AID 489026);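 also: cells exposed to compound about 14 hours before the viability readout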", "format": "functional, cell-based"}, "HEK293": {"system": "HEK293", "assay": "cells", "conditions": "Homo sapiens"}, "[4]": {"system": "Streptococcus sp. 'group A'", "assay": "Streptococcus pyogenes SK(-)GAS viability under kanamycin – luminescence, BacTiterGlo, confirmation, counter-screen for streptokinase expression inhibitor project, dose response (AID 1900)", "format": "functional, organism-based"}, "Streptococcus": {"system": "Streptococcus", "assay": "GAS UMAA2166 growth inhibition – luminescence, BacTiterGlo, counter-screen for streptokinase expression inhibitor project, dose response (AID 1915);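 also: potency for reduction of bacterial viability or growth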", "format": "functional, organism-based"}, "Nonstructural protein 1": {"molecular_target": "Nonstructural protein 1 (Influenza A virus, UniProt Q194T2)", "sequence (Q194T2 whole entry)": "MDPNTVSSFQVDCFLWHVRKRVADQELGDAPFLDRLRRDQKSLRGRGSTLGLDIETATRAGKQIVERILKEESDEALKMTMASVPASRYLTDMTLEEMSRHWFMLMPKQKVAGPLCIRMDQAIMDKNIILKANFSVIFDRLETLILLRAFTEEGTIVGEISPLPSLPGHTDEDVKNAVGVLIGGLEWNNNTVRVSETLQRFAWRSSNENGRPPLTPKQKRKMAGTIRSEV", "format": "functional, Influenza A virus (A/California/07/2009(H1N1))"}, "[5]": {"molecular_target": "Heat shock protein HSP 90-alpha (Homo sapiens, UniProt P07900)", "format": "functional, organism-based"}, "Vero": {"system": "Vero", "assay": "viability of Vero cells under compound – cytotoxicity control for flavivirus capping enzyme inhibitors (AID 588742)", "format": "functional", "conditions": "Chlorocebus sabaeus"}, "INS1": {"system": "INS1", "assay": "INS-1E survival protection against cytokine death – cell-based, luminescence, retest, dose response (AID 449756);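 also: cell death triggered by IL-1 beta plus TNF-alpha plus IFN-gamma mixture; protective hits raise ATP signal compared with cytokine alone wells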", "format": "functional", "conditions": "Rattus norvegicus"}, "[6]": {"molecular_target": "T1, Polyadenylate-binding protein 1 (Homo sapiens, UniProt P11940)", "T1 sequence (P11940 whole entry)": "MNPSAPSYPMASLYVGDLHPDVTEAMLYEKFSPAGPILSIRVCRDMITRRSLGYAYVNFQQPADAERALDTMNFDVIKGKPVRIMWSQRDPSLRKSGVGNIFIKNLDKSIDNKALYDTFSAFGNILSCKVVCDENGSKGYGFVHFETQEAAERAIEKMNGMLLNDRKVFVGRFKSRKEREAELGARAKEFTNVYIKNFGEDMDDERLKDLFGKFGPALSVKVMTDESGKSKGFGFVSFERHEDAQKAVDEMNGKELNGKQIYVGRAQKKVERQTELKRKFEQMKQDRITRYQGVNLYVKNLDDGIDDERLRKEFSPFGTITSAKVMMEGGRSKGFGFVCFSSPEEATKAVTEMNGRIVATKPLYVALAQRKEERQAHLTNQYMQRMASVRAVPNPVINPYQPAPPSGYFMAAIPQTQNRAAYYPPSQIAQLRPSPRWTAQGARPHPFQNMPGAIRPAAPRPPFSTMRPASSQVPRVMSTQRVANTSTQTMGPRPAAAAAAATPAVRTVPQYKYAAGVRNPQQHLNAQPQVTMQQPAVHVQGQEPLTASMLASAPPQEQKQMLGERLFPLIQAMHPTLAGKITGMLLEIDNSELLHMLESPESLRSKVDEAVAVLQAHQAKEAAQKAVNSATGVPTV", "assay": "MLLE binding blockers, Cy5 peptide tracer – biochemical, fluorescence polarization, Cy5-PAM2 peptide, secondary, miRNA deadenylation inhibitor project, dose response (AID 602260)", "format": "functional", "conditions": "read-out: IC50_Mean"}, "[7]": {"molecular_target": "T1, Polyadenylate-binding protein 1", "assay": "MLLE domain peptide-binding blockers, IC50 – biochemical, fluorescence polarization, FITC-PAM2 peptide, dose response (AID 602259)", "format": "functional", "conditions": "read-out: IC50_Mean"}, "[8]": {"molecular_target": "Disintegrin and metalloproteinase domain-containing protein 17 (Homo sapiens, UniProt P78536)", "sequence (P78536 whole entry, the tested form may be a part)": "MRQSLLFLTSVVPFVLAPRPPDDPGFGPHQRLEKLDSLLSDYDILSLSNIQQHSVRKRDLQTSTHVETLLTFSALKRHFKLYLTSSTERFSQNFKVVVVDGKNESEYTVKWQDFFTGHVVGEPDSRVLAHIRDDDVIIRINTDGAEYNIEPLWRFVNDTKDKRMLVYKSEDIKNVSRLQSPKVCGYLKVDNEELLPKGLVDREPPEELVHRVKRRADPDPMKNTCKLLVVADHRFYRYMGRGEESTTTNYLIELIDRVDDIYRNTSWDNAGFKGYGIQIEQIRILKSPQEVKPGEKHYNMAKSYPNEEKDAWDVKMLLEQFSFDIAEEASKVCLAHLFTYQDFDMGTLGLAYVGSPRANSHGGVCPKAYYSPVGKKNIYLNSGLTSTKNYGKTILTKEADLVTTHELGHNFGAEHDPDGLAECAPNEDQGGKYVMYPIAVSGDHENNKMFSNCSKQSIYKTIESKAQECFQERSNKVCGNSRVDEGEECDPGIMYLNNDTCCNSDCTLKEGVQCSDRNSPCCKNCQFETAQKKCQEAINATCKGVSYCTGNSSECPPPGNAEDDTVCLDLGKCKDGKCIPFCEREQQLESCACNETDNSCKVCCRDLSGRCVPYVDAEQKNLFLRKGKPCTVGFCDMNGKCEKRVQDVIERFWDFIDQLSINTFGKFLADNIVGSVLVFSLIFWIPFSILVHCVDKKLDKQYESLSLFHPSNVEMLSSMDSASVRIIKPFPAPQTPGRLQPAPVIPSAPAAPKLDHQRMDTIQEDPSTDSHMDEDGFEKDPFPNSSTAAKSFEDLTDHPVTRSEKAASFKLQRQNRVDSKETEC", "assay": "exosite inhibitors of ADAM17, dose response, biochemical (AID 743260)"}, "[9]": {"assay": "inhibition of ADAM10 peptide cleavage – biochemical, FRET peptide substrate, recombinant human ADAM10, selectivity assay for ADAM17 exosite inhibitor project, dose response (AID 743259)"}, "[10]": {"molecular_target": "T2, Mannose-6-phosphate isomerase (Homo sapiens, UniProt P34949)", "T2 sequence (P34949 whole entry)": "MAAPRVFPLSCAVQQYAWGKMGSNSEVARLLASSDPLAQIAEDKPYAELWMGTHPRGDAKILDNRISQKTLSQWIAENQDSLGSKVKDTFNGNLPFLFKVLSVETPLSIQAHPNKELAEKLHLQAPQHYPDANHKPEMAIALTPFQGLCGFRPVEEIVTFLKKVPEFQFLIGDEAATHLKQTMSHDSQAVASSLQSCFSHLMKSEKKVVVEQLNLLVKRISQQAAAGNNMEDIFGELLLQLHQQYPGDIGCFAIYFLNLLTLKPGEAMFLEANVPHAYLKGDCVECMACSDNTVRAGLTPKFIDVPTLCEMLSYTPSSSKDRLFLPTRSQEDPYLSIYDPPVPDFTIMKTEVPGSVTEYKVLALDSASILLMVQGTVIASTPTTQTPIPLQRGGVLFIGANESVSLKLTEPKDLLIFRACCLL", "assay": "MPI enzyme activity inhibition – biochemical, fluorescence intensity, coupled assay, primary screen (AID 1209)"}, "[11]": {"molecular_target": "T2, Mannose-6-phosphate isomerase", "assay": "MPI inhibition at elevated mannose 6-phosphate – biochemical, fluorescence intensity, high mannose 6-phosphate, primary screen (AID 1220)"}, "[12]": {"molecular_target": "T3, Apoptotic protease-activating factor 1 (Homo sapiens, UniProt O14727)", "T3 sequence (O14727 whole entry)": "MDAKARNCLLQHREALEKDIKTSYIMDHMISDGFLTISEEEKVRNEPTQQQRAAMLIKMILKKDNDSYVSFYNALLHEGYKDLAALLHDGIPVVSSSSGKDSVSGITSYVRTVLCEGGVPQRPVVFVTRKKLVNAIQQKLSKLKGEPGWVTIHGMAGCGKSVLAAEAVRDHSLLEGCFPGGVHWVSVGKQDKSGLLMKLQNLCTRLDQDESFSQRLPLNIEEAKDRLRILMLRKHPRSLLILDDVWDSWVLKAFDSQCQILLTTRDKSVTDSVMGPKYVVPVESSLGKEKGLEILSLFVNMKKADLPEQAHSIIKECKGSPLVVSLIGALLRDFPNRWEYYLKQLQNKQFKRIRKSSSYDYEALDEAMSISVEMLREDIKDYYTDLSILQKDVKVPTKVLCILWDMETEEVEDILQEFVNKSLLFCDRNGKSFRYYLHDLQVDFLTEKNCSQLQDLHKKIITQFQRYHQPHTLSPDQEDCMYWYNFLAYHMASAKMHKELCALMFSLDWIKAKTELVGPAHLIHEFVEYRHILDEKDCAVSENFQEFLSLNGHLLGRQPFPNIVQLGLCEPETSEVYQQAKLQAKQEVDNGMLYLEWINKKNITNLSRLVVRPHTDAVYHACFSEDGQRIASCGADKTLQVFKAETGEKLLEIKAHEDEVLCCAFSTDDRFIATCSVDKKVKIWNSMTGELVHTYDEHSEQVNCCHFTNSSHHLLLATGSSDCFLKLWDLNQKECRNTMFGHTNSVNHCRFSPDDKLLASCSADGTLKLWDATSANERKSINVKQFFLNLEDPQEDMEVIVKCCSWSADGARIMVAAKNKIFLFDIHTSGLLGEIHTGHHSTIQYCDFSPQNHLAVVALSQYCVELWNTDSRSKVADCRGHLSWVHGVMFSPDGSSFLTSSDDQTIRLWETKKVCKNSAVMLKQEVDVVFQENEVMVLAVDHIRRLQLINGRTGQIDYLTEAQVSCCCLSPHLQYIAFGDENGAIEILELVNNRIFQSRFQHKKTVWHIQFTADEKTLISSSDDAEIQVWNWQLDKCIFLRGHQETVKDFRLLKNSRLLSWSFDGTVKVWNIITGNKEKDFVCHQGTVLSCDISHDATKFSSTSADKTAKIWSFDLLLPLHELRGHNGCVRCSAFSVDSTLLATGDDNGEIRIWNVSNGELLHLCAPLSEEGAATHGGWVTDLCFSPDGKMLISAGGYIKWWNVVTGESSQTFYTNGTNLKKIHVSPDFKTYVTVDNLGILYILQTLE", "format": "functional"}, "Protein RecA": {"molecular_target": "T4, Protein RecA (Mycobacterium tuberculosis, UniProt P9WHJ3)", "T4 sequence (P9WHJ3 whole entry)": "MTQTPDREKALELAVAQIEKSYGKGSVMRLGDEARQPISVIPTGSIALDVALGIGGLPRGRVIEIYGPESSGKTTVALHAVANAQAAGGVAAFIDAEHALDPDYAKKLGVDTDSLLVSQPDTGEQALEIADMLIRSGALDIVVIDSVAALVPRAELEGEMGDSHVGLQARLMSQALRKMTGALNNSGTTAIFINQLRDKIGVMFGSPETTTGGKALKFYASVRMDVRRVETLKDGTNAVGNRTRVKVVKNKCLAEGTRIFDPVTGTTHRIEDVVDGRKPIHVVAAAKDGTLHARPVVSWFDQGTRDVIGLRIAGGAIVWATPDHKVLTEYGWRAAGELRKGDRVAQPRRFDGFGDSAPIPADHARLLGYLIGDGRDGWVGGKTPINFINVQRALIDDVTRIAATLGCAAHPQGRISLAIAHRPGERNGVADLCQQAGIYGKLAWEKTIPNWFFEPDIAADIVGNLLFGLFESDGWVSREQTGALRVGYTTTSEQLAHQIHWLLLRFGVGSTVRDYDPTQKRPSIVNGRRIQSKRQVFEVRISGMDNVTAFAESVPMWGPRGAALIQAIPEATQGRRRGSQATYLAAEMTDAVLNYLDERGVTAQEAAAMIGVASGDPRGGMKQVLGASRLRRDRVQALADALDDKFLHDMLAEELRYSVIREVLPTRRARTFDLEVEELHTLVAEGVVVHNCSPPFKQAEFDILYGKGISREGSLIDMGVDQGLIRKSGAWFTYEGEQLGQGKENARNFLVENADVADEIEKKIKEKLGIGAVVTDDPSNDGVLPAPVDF", "assay": "Fluorescence Cell-Free Homogeneous Dose Retest to Identify Inhibitors of RecA-Intein Splicing Activity. [Related pubchem assays (depositor defined):AID2097, AID2223, AID489010, AID492950]", "format": "functional"}, "Cytochrome P450 3A4": {"molecular_target": "Cytochrome P450 3A4 (Homo sapiens, UniProt P08684)", "sequence (P08684 whole entry)": "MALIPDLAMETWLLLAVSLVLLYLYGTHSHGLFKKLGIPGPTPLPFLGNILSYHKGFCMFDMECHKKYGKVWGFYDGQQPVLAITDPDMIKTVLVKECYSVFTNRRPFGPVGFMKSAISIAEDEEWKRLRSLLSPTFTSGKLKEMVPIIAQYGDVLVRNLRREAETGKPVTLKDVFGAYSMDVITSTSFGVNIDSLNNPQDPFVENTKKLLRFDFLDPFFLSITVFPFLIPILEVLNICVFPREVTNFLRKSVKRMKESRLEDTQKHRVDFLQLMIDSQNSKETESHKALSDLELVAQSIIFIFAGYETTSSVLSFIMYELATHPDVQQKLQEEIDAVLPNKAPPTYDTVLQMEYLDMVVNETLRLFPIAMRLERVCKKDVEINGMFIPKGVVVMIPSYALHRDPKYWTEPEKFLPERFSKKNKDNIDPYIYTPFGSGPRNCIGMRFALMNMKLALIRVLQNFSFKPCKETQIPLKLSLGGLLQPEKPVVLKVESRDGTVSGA", "conditions": "Potency"}, "Cytochrome P450 2C9 [13]": {"molecular_target": "T5, Cytochrome P450 2C9 (Homo sapiens, UniProt P11712)", "T5 sequence (P11712 whole entry)": "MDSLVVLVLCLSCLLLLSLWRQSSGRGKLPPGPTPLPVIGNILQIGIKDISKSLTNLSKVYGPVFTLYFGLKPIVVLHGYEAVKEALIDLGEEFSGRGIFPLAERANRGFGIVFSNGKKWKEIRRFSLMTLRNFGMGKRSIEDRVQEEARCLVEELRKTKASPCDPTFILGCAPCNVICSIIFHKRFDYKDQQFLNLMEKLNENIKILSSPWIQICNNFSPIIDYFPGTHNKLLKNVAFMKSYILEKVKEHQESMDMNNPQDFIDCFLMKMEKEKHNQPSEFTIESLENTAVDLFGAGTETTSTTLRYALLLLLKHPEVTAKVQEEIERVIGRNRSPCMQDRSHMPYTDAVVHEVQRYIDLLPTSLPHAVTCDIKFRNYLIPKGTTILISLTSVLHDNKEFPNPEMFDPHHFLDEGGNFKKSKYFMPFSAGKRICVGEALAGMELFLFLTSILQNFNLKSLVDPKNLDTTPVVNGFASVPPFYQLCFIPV", "conditions": "Potency"}, "Cytochrome P450 2C9 [14]": {"molecular_target": "T5, Cytochrome P450 2C9"}}, "note": "Active and inactive are the calls of the source.", "data": [{"smiles": "CC(C)(C)c1ccc(C(=O)O/N=C(\\N)c2ccccc2)cc1", "values": [{"measurement": "EC50", "setting": "[1]", "result": "4.8 µM (active)"}, {"measurement": "IC50", "setting": "[2]", "result": "5.77 µM (active)"}, {"measurement": "IC50", "setting": "[3]", "result": "> 80 µM (inactive)"}, {"measurement": "IC50", "setting": "HEK293", "result": "5.99 µM (active)"}]}, {"smiles": "Cc1ccc(S(=O)(=O)Nc2cc(Cl)c(O)c3ncccc23)cc1", "values": [{"measurement": "EC50", "setting": "[4]", "result": "8.9 µM (active)"}, {"measurement": "IC50", "setting": "[2]", "result": "4.8 µM (active)"}, {"measurement": "EC50", "setting": "Streptococcus", "result": "9.72 µM (active)"}, {"measurement": "IC50", "setting": "Nonstructural protein 1", "result": "11.5 µM (active)"}, {"measurement": "AC50", "setting": "[5]", "result": "2.38 µM (active)"}, {"measurement": "CC50", "setting": "Vero", "result": "5.28 µM (active)"}, {"measurement": "AC50", "setting": "INS1", "result": "2.4 µM (active)"}, {"measurement": "IC50", "setting": "[6]", "result": "> 66 µM (inactive)"}, {"measurement": "IC50", "setting": "[7]", "result": "> 66 µM (inactive)"}, {"measurement": "IC50", "setting": "[8]", "result": "21.2 µM (inactive)"}, {"measurement": "IC50", "setting": "[9]", "result": "11.1 µM (inactive)"}]}, {"smiles": "c1cc2cn[nH]c2cc1NC1CCCCCC1", "values": [{"measurement": "IC50", "setting": "[10]", "result": "> 50 µM (not active)"}, {"measurement": "IC50", "setting": "[11]", "result": "> 50 µM (not active)"}, {"measurement": "IC50", "setting": "[12]", "result": "1.94 µM (active)"}, {"measurement": "EC50", "setting": "Protein RecA", "result": "8.81 µM (active)"}]}, {"smiles": "COC(=O)[C@@H]1C[C@@]2(O)[C@H](O)[C@H](O)[C@H](O)C[C@H]2N1Cc1ccc(-c2ccccc2)cc1", "values": [{"measurement": "AC50", "setting": "Cytochrome P450 3A4", "result": "15.8 µM (inconclusive)"}]}, {"smiles": "OCC1OC(c2ccc3c(c2)OCO3)C=CC1Oc1cc(Cl)cc(Cl)c1", "note": "(centres undefined)", "values": [{"measurement": "AC50", "setting": "Cytochrome P450 2C9 [13]", "result": "3.98 µM (inconclusive)"}]}, {"smiles": "CC(C)(C)c1ccc(S(=O)(=O)/C=C\\C#N)cc1", "values": [{"measurement": "AC50", "setting": "Cytochrome P450 2C9 [13]", "result": "2.51 µM (inconclusive)"}, {"measurement": "AC50", "setting": "Cytochrome P450 2C9 [14]", "result": "7.94 µM (inconclusive)"}]}, {"smiles": "COc1cc(O)c(C(=O)c2ccccc2)cc1O", "note": "[CEAROIN]", "values": [{"measurement": "AC50", "setting": "Cytochrome P450 3A4", "result": "0.794 µM (inconclusive)"}]}]}
